Reference: ChEMBL document CHEMBL5058645, “Data for DCP probe JNJ-6204” (2022)

How the values were obtained:
[1] = target: Activin receptor type-1B (Homo sapiens) (UniProt P36896); assay: ALK4(h) Kinase panel; conditions: Compound concentration 1.0 uM, tested as the 2H-labelled form
[2] = target: Tyrosine-protein kinase ABL2 (Homo sapiens) (UniProt P42684); assay: Arg(h) Kinase panel; conditions: Compound concentration 1.0 uM, tested as the 2H-labelled form
[3] = target: Serine/threonine-protein kinase A-Raf (Homo sapiens) (UniProt P10398); assay: A-Raf(h) Kinase panel; conditions: Compound concentration 1.0 uM, tested as the 2H-labelled form
Chain of Serine/threonine-protein kinase A-Raf (Homo sapiens) (P10398 whole entry): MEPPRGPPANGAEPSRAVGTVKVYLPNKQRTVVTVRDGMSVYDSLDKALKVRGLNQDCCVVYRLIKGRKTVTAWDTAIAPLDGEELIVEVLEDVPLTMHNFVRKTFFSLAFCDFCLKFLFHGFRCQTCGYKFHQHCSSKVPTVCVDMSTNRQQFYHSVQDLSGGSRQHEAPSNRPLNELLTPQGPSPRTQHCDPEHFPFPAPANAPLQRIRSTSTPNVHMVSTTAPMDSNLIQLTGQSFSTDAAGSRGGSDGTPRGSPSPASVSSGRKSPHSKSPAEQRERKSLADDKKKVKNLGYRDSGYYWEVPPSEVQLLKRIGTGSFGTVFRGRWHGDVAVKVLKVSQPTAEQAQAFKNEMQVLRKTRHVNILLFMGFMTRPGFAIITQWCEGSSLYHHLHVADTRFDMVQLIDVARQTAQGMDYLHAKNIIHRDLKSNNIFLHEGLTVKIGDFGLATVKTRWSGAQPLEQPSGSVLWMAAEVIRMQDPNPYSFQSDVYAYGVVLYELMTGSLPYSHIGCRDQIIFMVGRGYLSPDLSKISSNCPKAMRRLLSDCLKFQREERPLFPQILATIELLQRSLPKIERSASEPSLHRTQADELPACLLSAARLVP

[4] = target: Calcium/calmodulin-dependent protein kinase type 1 (Homo sapiens) (UniProt Q14012); assay: CaMKI(h) Kinase panel; conditions: Compound concentration 1.0 uM, tested as the 2H-labelled form
[5] = target: Calcium/calmodulin-dependent protein kinase kinase 1 (Homo sapiens) (UniProt Q8N5S9); assay: CaMKK1(h) Kinase panel; conditions: Compound concentration 1.0 uM, tested as the 2H-labelled form
[6] = target: Cyclin-dependent kinase 3 (Homo sapiens) (UniProt Q00526); assay: CDK3/cyclinE(h) Kinase panel; conditions: Compound concentration 1.0 uM, tested as the 2H-labelled form
[7] = target: Cyclin-dependent kinase 7 (Homo sapiens) (UniProt P50613); assay: CDK7/cyclinH/MAT1(h) Kinase panel; conditions: Compound concentration 1.0 uM, tested as the 2H-labelled form
[8] = target: Death-associated protein kinase 1 (Homo sapiens) (UniProt P53355); assay: DAPK1(h) Kinase panel; conditions: Compound concentration 1.0 uM, tested as the 2H-labelled form
[9] = target: Death-associated protein kinase 2 (Homo sapiens) (UniProt Q9UIK4); assay: DAPK2(h) Kinase panel; conditions: Compound concentration 1.0 uM, tested as the 2H-labelled form
[10] = target: Dual specificity tyrosine-phosphorylation-regulated kinase 1A (Homo sapiens) (UniProt Q13627); assay: DYRK1A(h) Kinase panel; conditions: Compound concentration 1.0 uM, tested as the 2H-labelled form
[11] = target: Ephrin type-A receptor 4 (Homo sapiens) (UniProt P54764); assay: EphA4(h) Kinase panel; conditions: Compound concentration 1.0 uM, tested as the 2H-labelled form
[12] = target: Ephrin type-B receptor 1 (Homo sapiens) (UniProt P54762); assay: EphB1(h) Kinase panel; conditions: Compound concentration 1.0 uM, tested as the 2H-labelled form
Chain of Ephrin type-B receptor 1 (Homo sapiens) (P54762 whole entry): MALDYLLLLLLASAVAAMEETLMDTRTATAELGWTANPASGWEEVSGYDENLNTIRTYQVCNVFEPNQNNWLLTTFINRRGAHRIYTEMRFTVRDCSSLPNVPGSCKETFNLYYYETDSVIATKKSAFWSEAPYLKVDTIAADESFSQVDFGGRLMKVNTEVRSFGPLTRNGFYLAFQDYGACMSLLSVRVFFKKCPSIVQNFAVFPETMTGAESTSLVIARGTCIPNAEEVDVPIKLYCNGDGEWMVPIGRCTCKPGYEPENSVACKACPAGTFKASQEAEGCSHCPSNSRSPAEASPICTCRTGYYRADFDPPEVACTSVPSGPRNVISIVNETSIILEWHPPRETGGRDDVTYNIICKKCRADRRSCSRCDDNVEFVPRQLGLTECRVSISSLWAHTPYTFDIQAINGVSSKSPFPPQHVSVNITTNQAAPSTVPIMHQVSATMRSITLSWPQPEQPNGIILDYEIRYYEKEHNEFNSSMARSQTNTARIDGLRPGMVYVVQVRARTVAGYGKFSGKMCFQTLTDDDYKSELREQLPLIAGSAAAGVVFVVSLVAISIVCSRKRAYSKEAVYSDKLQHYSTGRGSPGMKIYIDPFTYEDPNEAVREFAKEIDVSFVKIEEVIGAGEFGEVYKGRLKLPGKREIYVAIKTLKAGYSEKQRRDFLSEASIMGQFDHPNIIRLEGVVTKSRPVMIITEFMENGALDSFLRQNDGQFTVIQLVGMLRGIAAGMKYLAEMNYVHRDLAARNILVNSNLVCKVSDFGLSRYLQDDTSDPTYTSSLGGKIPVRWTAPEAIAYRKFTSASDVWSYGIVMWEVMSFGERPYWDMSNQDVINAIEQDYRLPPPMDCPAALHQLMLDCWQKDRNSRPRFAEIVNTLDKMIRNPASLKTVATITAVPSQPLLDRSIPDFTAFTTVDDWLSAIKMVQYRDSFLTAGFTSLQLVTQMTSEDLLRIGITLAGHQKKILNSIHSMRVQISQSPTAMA

[13] = target: Tyrosine-protein kinase Fes/Fps (Homo sapiens) (UniProt P07332); assay: Fes(h) Kinase panel; conditions: Compound concentration 1.0 uM, tested as the 2H-labelled form
Chain of Tyrosine-protein kinase Fes/Fps (Homo sapiens) (P07332 whole entry): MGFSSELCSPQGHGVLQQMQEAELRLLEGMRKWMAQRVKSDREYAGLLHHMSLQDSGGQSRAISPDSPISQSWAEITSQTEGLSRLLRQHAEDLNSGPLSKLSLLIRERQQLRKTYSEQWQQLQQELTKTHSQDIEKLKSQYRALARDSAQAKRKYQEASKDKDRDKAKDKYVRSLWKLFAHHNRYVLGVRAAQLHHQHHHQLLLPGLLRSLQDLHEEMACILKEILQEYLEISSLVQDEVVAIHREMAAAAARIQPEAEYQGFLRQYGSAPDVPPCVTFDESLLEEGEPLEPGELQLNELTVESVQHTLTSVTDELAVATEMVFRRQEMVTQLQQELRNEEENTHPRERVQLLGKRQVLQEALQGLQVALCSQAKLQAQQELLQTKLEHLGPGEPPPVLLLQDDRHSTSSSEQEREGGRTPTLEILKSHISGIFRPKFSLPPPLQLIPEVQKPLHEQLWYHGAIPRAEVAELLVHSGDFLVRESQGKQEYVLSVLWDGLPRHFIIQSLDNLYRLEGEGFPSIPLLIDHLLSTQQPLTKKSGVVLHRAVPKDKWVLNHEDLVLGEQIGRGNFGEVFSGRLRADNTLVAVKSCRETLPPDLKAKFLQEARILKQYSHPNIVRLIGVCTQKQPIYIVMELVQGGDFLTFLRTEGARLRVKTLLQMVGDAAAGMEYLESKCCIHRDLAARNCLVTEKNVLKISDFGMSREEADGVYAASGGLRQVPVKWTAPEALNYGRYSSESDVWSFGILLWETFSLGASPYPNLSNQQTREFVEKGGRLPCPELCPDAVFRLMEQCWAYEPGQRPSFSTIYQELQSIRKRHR

[14] = target: Beta-adrenergic receptor kinase 1 (Homo sapiens) (UniProt P25098); assay: GRK2(h) Kinase panel; conditions: Compound concentration 1.0 uM, tested as the 2H-labelled form
[15] = target: Dual specificity mitogen-activated protein kinase kinase 2 (Homo sapiens) (UniProt P36507); assay: MEK2(h) Kinase panel; conditions: Compound concentration 1.0 uM, tested as the 2H-labelled form
[16] = target: MAP/microtubule affinity-regulating kinase 3 (Homo sapiens) (UniProt P27448); assay: MARK3(h) Kinase panel; conditions: Compound concentration 1.0 uM, tested as the 2H-labelled form
[17] = target: Dual specificity mitogen-activated protein kinase kinase 6 (Homo sapiens) (UniProt P52564); assay: MKK6(h) Kinase panel; conditions: Compound concentration 1.0 uM, tested as the 2H-labelled form
[18] = target: MAP kinase-interacting serine/threonine-protein kinase 2 (Homo sapiens) (UniProt Q9HBH9); assay: Mnk2(h) Kinase panel; conditions: Compound concentration 1.0 uM, tested as the 2H-labelled form
[19] = target: Ribosomal protein S6 kinase alpha-4 (Homo sapiens) (UniProt O75676); assay: MSK2(h) Kinase panel; conditions: Compound concentration 1.0 uM, tested as the 2H-labelled form
[20] = target: Serine/threonine-protein kinase 26 (Homo sapiens) (UniProt Q9P289); assay: MST4(h) Kinase panel; conditions: Compound concentration 1.0 uM, tested as the 2H-labelled form
[21] = target: Myosin-IIIb (Homo sapiens) (UniProt Q8WXR4); assay: MYO3B(h) Kinase panel; conditions: Compound concentration 1.0 uM, tested as the 2H-labelled form
[22] = target: Serine/threonine-protein kinase PAK 2 (Homo sapiens) (UniProt Q13177); assay: PAK2(h) Kinase panel; conditions: Compound concentration 1.0 uM, tested as the 2H-labelled form
[23] = target: Platelet-derived growth factor receptor beta (Homo sapiens) (UniProt P09619); assay: PDGFRbeta(h) Kinase panel; conditions: Compound concentration 1.0 uM, tested as the 2H-labelled form
[24] = target: RAC-alpha serine/threonine-protein kinase (Homo sapiens) (UniProt P31749); assay: PKBalpha (h) Kinase panel; conditions: Compound concentration 1.0 uM, tested as the 2H-labelled form
[25] = target: Protein kinase C beta type (Homo sapiens) (UniProt P05771); assay: PKCbetaII (h) Kinase panel; conditions: Compound concentration 1.0 uM, tested as the 2H-labelled form
Chain of Protein kinase C beta type (Homo sapiens) (P05771 2-671 limits assumed): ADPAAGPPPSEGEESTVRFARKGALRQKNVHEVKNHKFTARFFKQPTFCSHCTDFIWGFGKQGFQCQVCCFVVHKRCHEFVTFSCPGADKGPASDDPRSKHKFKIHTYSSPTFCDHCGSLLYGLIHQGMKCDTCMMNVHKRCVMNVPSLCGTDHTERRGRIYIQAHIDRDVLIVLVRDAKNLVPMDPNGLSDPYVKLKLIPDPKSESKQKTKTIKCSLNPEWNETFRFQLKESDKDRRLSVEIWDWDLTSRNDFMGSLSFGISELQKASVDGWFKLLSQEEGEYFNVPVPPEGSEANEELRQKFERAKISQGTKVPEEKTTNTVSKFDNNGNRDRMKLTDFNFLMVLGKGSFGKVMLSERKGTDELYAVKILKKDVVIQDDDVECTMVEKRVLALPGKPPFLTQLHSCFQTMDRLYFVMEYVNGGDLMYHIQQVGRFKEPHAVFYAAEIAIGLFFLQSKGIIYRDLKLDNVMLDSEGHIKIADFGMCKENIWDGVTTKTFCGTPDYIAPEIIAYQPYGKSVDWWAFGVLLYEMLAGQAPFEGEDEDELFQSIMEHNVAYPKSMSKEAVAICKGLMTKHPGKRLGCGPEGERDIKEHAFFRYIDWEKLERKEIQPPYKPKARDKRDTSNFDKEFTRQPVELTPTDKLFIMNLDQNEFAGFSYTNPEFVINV

[26] = target: Protein kinase C iota type (Homo sapiens) (UniProt P41743); assay: PKCiota (h) Kinase panel; conditions: Compound concentration 1.0 uM, tested as the 2H-labelled form
[27] = target: cGMP-dependent protein kinase 1 (Homo sapiens) (UniProt Q13976); assay: PKG1beta (h) Kinase panel; conditions: Compound concentration 1.0 uM, tested as the 2H-labelled form
[28] = target: Interferon-induced, double-stranded RNA-activated protein kinase (Homo sapiens) (UniProt P19525); assay: PKR(h) Kinase panel; conditions: Compound concentration 1.0 uM, tested as the 2H-labelled form
[29] = target: Serine/threonine-protein kinase PLK3 (Homo sapiens) (UniProt Q9H4B4); assay: Plk3(h) Kinase panel; conditions: Compound concentration 1.0 uM, tested as the 2H-labelled form
[30] = target: Serine/threonine-protein kinase PLK4 (Homo sapiens) (UniProt O00444); assay: Plk4(h) Kinase panel; conditions: Compound concentration 1.0 uM, tested as the 2H-labelled form
Chain of Serine/threonine-protein kinase PLK4 (Homo sapiens) (O00444 whole entry): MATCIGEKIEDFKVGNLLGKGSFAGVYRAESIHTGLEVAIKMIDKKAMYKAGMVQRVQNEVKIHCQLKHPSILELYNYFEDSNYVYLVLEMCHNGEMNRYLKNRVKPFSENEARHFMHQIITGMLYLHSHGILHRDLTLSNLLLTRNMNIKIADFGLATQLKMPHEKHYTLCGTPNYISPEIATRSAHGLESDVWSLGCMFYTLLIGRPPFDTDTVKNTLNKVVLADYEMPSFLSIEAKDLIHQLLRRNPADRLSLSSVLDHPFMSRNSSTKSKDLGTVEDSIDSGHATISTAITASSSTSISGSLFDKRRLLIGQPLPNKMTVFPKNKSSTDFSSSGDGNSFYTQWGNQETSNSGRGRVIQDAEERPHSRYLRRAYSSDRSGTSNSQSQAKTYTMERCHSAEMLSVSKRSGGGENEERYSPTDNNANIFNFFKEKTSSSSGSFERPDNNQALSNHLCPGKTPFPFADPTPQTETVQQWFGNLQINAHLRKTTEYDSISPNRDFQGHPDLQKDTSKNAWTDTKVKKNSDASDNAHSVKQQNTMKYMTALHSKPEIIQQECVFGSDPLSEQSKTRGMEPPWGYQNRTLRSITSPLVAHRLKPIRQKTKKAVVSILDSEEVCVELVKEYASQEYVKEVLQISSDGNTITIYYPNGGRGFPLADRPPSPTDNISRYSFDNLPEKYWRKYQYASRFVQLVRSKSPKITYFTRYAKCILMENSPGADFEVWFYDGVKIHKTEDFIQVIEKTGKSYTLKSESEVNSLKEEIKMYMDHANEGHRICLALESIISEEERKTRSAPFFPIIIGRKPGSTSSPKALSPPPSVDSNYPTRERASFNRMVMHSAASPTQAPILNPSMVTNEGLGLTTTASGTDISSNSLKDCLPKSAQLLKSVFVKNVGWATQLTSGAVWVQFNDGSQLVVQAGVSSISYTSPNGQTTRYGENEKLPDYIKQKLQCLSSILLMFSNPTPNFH

[31] = target: Tyrosine-protein kinase FRK (Homo sapiens) (UniProt P42685); assay: PTK5(h) Kinase panel; conditions: Compound concentration 1.0 uM, tested as the 2H-labelled form
[32] = target: Protein-tyrosine kinase 2-beta (Homo sapiens) (UniProt Q14289); assay: Pyk2(h) Kinase panel; conditions: Compound concentration 1.0 uM, tested as the 2H-labelled form
[33] = target: Mitogen-activated protein kinase 11 (Homo sapiens, UniProt Q15759); assay: SAPK2b(h) Kinase panel; conditions: Compound concentration 1.0 uM, tested as the 2H-labelled form
[34] = target: Serine/threonine-protein kinase Sgk2 (Homo sapiens) (UniProt Q9HBY8); assay: SGK2(h) Kinase panel; conditions: Compound concentration 1.0 uM, tested as the 2H-labelled form
Chain of Serine/threonine-protein kinase Sgk2 (Homo sapiens) (Q9HBY8 whole entry): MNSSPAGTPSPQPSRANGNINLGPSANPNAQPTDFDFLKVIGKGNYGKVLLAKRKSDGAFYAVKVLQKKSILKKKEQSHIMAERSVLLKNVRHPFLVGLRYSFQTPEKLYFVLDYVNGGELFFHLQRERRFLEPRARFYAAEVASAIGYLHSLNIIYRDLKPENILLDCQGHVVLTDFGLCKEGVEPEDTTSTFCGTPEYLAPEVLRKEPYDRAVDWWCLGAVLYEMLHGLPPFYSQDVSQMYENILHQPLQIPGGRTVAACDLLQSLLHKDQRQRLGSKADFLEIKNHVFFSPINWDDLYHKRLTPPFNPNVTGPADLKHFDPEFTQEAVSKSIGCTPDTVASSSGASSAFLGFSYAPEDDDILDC

[35] = target: Serine/threonine-protein kinase SIK2 (Homo sapiens) (UniProt Q9H0K1); assay: SIK2(h) Kinase panel; conditions: Compound concentration 1.0 uM, tested as the 2H-labelled form
[36] = target: SRSF protein kinase 2 (Homo sapiens) (UniProt P78362); assay: SRPK2(h) Kinase panel; conditions: Compound concentration 1.0 uM, tested as the 2H-labelled form
[37] = target: Tribbles homolog 2 (Homo sapiens) (UniProt Q92519); assay: TRB2(h) Kinase panel; conditions: Compound concentration 1.0 uM, tested as the 2H-labelled form
[38] = target: Serine/threonine-protein kinase WNK2 (Homo sapiens) (UniProt Q9Y3S1); assay: WNK2(h) Kinase panel; conditions: Compound concentration 1.0 uM, tested as the 2H-labelled form
[39] = target: Serine/threonine-protein kinase WNK4 (Homo sapiens) (UniProt Q96J92); assay: WNK4(h) Kinase panel; conditions: Compound concentration 1.0 uM, tested as the 2H-labelled form
[40] = target: Phosphatidylinositol 4,5-bisphosphate 3-kinase catalytic subunit gamma isoform (Homo sapiens) (UniProt P48736); assay: PI3 Kinase (p120g)(h) Kinase panel; conditions: Compound concentration 1.0 uM, tested as the 2H-labelled form
[41] = target: Phosphatidylinositol 4-phosphate 3-kinase C2 domain-containing subunit alpha (Homo sapiens) (UniProt O00443); assay: PI3KC2a(h) Kinase panel; conditions: Compound concentration 1.0 uM, tested as the 2H-labelled form
[42] = target: Phosphatidylinositol 4-phosphate 5-kinase type-1 alpha (Homo sapiens) (UniProt Q99755); assay: PIP5K1a(h) Kinase panel; conditions: Compound concentration 1.0 uM, tested as the 2H-labelled form
D(3) dopamine receptor = D(3) dopamine receptor (Homo sapiens, UniProt P35462); conditions: Compound concentration 10.0 uM, tested as the 2H-labelled form
Chain of D(3) dopamine receptor (P35462 whole entry): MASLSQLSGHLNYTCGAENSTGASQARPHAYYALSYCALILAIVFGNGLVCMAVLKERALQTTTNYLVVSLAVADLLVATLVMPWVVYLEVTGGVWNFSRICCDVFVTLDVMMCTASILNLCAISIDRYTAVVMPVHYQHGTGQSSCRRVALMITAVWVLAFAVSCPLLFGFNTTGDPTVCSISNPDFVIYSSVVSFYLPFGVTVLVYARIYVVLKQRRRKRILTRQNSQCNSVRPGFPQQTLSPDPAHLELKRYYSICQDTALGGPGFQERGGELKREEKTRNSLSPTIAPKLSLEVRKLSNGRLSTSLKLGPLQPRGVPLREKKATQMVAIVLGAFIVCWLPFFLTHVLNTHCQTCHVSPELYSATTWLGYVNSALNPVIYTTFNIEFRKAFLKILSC

[43] = target: Mu-type opioid receptor (Homo sapiens) (UniProt P35372); conditions: Compound concentration 10.0 uM, tested as the 2H-labelled form
[44] = target: Histamine H4 receptor (Homo sapiens) (UniProt Q9H3N8); conditions: Compound concentration 10.0 uM, tested as the 2H-labelled form
[45] = target: Muscarinic acetylcholine receptor M4 (Homo sapiens) (UniProt P08173); conditions: Compound concentration 10.0 uM, tested as the 2H-labelled form

Measured: inhibition

CC1(C)Cn2nc(-c3ccc(F)cn3)c(-c3ccnc4[nH]ncc34)c2CO1
inactive: [1] 25% | [2] 7% | [3] 12% | [4] 5% | [5] 2% | [6] -8% | [7] -8% | [8] 10% | [9] -7% | [10] 0% | [11] 0% | [12] 3% | [13] 14% | [14] -8% | [15] 4% | [16] -2% | [17] 9% | [18] 20% | [19] -1% | [20] 6% | [21] 12% | [22] -10% | [23] -9% | [24] 2% | [25] -3% | [26] -2% | [27] 13% | [28] 4% | [29] -7% | [30] 16% | [31] 11% | [32] -2% | [33] -3% | [34] 9% | [35] 0% | [36] -8% | [37] -2% | [38] 8% | [39] 10% | [40] 2% | [41] -2% | [42] -4% | D(3) dopamine receptor -0.66% | [43] -6.9% | [44] 24.7% | [45] 1.83%
